Key:
human μ opiate receptor = target: T1, human μ opiate receptor (Homo sapiens, UniProt P35372); experiment: Affinity for the human μ opiate receptor ([3H]-naloxone displacement, CHO-K1 receptor membrane preparation, SPA); type: binding; conditions: test concentration of 1 μM; read-out: μ (binding on the μ opioid receptor, % inhibition)
T1 construct: purchased PerkinElmer Life Sciences, Zaventem, Belgium RB-HOM; host or cells: CHO-K1 cells (membrane preparation)
Procedure, shortened: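 Membranes from CHO-K1 cells expressing the human μ opiate receptor (15-40 μg protein per well) were incubated with test compound, 1 nmol/l [3H]-naloxone and WGA-SPA beads in 50 mmol/l Tris-HCl with 0.06% BSA for 90 minutes at room temperature. Values are % inhibition of specific binding at 1 μmol/l.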

[1] = target: T2, serotonin (5-HT) reuptake (Rattus norvegicus, UniProt P31652); experiment: Inhibition of serotonin (5HT) reuptake in synaptosomes from rat brain; type: biochemical; conditions: test concentration of 10 μM; read-out: 5-HT (inhibition of reuptake of serotonin, % inhibition)
T2 construct: synaptosomes are freshly isolated from areas of the rat brain; from tissue; host or cells: rat brain synaptosomes (P2 fraction)
Procedure, shortened: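 Freshly isolated rat brain synaptosomes (P2 fraction) used for 5-HT reuptake. Test compound at 10 μM, activity given as % inhibition.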

T2 sequence (P31652 whole entry): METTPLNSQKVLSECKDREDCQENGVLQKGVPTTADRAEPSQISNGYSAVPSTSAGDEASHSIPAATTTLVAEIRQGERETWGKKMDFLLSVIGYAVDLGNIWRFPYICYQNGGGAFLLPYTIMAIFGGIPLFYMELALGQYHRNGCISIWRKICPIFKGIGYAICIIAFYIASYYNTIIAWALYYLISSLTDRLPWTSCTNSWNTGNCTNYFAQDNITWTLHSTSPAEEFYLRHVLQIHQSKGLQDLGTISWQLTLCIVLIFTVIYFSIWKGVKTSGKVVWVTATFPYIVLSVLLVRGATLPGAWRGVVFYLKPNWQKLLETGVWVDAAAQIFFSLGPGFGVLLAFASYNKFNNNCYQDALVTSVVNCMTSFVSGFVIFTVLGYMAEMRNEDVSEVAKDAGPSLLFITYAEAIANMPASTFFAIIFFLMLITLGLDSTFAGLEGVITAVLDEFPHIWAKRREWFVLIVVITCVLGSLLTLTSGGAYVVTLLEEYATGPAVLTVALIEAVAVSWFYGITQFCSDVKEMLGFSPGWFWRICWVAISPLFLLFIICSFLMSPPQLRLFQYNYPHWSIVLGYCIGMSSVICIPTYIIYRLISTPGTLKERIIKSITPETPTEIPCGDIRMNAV
T1 sequence (P35372 whole entry): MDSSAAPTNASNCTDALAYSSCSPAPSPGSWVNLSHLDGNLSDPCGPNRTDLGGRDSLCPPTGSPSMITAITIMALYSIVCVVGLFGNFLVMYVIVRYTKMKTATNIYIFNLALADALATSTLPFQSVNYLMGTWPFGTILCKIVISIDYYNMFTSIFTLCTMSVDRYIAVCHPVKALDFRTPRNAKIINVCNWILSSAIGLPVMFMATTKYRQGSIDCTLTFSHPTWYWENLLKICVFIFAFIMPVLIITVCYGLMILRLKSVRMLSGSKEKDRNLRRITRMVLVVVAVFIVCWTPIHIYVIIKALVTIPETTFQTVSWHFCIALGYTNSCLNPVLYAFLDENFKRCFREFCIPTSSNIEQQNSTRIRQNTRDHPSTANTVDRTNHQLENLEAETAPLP

Structure (SMILES)	inhibition at 1 µM (human μ opiate receptor)	inhibition at 10 µM [1]
COc1cc(C)c(S(=O)(=O)N2CCC(OCC(=O)NCC3CCC(C(c4cccs4)N(C)C)CC3)C2)c(C)c1C (centres unmarked) [Example 58, N-((4-((dimethylamino)(thiophen-2-yl)methyl)cyclohexyl)methyl)-2-(1-(4-methoxy-2,3,6-trimethylphenylsulfonyl)pyrrolidin-3-yloxy)acetamide]	95%	94%
Cc1cc(C)c(S(=O)(=O)N2CCC(OCC(=O)NCCC3CCC(C(c4cccs4)N(C)C)CC3)C2)c(C)c1 (centres unmarked) [Example 71, N-(2-(4-((dimethylamino)(thiophen-2-yl)methyl)cyclohexyl)ethyl)-2-(1-(mesitylsulfonyl)pyrrolidin-3-yloxy)acetamide]	94%	79%
COc1ccc(S(=O)(=O)N2Cc3ccccc3CC2COCC(=O)NC2CCC(C(c3ccccc3)N(C)C)CC2)cc1 (centres unmarked) [Example 38, N-(4-((dimethylamino)(phenyl)methyl)cyclohexyl)-2-((2-(4-methoxyphenylsulfonyl)-1,2,3,4-tetrahydroisoquinolin-3-yl)methoxy)acetamide]	96%	61%
CN(C)C(c1ccccc1)C1CCC(CNC(=O)COC2CCN(S(=O)(=O)c3ccc(Cl)cc3)C2)CC1 (centres unmarked) [Example 81, 2-(1-(4-chlorophenylsulfonyl)pyrrolidin-3-yloxy)-N-((4-((dimethylamino)(phenyl)methyl)cyclohexyl)methyl)acetamide]	91%	91%
COc1cc(C)c(S(=O)(=O)N(C)CCOCC(=O)NCC2CCC(C(c3cccs3)N(C)C)CC2)c(C)c1C (centres unmarked) [Example 35, N-((4-((dimethylamino)(thiophen-2-yl)methyl)cyclohexyl)methyl)-2-(2-(4-methoxy-N,2,3,6-tetramethylphenylsulfonamido)ethoxy)acetamide]	96%	84%
COc1ccc(S(=O)(=O)N2Cc3ccccc3CC2COCC(=O)NC2CCC(C(c3cccs3)N(C)C)CC2)cc1 (centres unmarked) [Example 47, N-(4-((dimethylamino)(thiophen-2-yl)methyl)cyclohexyl)-2-((2-(4-methoxyphenylsulfonyl)-1,2,3,4-tetrahydroisoquinolin-3-yl)methoxy)acetamide]	96%	98%
CN(C)C(c1cccs1)C1CCC(CCNC(=O)COCCN(C)S(=O)(=O)c2ccc(OC(F)(F)F)cc2)CC1 (centres unmarked) [Example 65, N-(2-(4-((dimethylamino)(thiophen-2-yl)methyl)cyclohexyl)ethyl)-2-(2-(N-methyl-4-(trifluoromethoxy)phenylsulfonamido)ethoxy)acetamide]	96%	95%
COc1cc(C)c(S(=O)(=O)N2CCN(CCOCC(=O)NC3CCC(C(c4cccc(F)c4)N(C)C)CC3)CC2)c(C)c1C (centres unmarked) [Example 76, N-(4-((dimethylamino)(3-fluorophenyl)methyl)cyclohexyl)-2-(2-(4-(4-methoxy-2,3,6-trimethylphenylsulfonyl)piperazin-1-yl)ethoxy)acetamide]	93%	96%
COc1cc(C)c(S(=O)(=O)N2CCN(CCOCC(=O)NCC3CCC(C(c4ccccc4)N(C)C)CC3)CC2)c(C)c1C (centres unmarked) [Example 61, N-((4-((dimethylamino)(phenyl)methyl)cyclohexyl)methyl)-2-(2-(4-(4-methoxy-2,3,6-trimethylphenylsulfonyl)piperazin-1-yl)ethoxy)acetamide]	95%	95%
CN(C)C(c1cccc(F)c1)C1CCC(CCNC(=O)COCCN(C)S(=O)(=O)c2c(Cl)cccc2Cl)CC1 (centres unmarked) [Example 41, 2-(2-(2,6-dichloro-N-methylphenylsulfonamido)ethoxy)-N-(2-(4-((dimethylamino)(3-fluorophenyl)methyl)cyclohexyl)ethyl)acetamide]	96%	79%
CN(C)C(c1cccs1)C1CCC(CNC(=O)COCCN(C)S(=O)(=O)c2ccc(OC(F)(F)F)cc2)CC1 (centres unmarked) [Example 93, N-((4-((dimethylamino)(thiophen-2-yl)methyl)cyclohexyl)methyl)-2-(2-(N-methyl-4-(trifluoromethoxy)phenylsulfonamido)ethoxy)acetamide]	95%	93%
COc1ccc(S(=O)(=O)N2CCCC2COCC(=O)NCCC2CCC(C(c3cccs3)N(C)C)CC2)cc1 (centres unmarked) [Example 77, N-(2-(4-((dimethylamino)(thiophen-2-yl)methyl)cyclohexyl)ethyl)-2-((1-(4-methoxyphenylsulfonyl)pyrrolidin-2-yl)methoxy)acetamide]	96%	98%
CN(C)C(c1cccc(F)c1)C1CCC(CNC(=O)COCCN(C)S(=O)(=O)c2ccc(Cl)cc2Cl)CC1 (centres unmarked) [Example 70, 2-(2-(2,4-dichloro-N-methylphenylsulfonamido)ethoxy)-N-((4-((dimethylamino)(3-fluorophenyl)methyl)cyclohexyl)methyl)acetamide]	91%	86%
COc1ccc(S(=O)(=O)N2CCCCC2CCOCC(=O)NCC2CCC(C(c3ccccc3)N(C)C)CC2)cc1 (centres unmarked) [Example 89, N-((4-((dimethylamino)(phenyl)methyl)cyclohexyl)methyl)-2-(2-(1-(4-methoxyphenylsulfonyl)piperidin-2-yl)ethoxy)acetamide]	93%	92%
Cc1cc(C)c(S(=O)(=O)N2CCC(OCC(=O)NC3CCC(C(c4ccccc4)N(C)C)CC3)C2)c(C)c1 (centres unmarked) [Example 64, N-(4-((dimethylamino)(phenyl)methyl)cyclohexyl)-2-(1-(mesitylsulfonyl)pyrrolidin-3-yloxy)acetamide]	94%	83%
CN(C)C(c1cccc(F)c1)C1CCC(CNC(=O)COCC2CCCCN2S(=O)(=O)c2ccc(Cl)c(Cl)c2)CC1 (centres unmarked) [Example 87, 2-((1-(3,4-dichlorophenylsulfonyl)piperidin-2-yl)methoxy)-N-((4-((dimethylamino)(3-fluorophenyl)methyl)cyclohexyl)methyl)acetamide]	93%	94%
CN(C)C(c1cccs1)C1CCC(CCNC(=O)COC2CCN(S(=O)(=O)c3ccc(Cl)cc3)C2)CC1 (centres unmarked) [Example 66, 2-(1-(4-chlorophenylsulfonyl)pyrrolidin-3-yloxy)-N-(2-(4-((dimethylamino)(thiophen-2-yl)methyl)cyclohexyl)ethyl)acetamide]	93%	85%
COc1ccc(S(=O)(=O)N2CCCCC2CCOCC(=O)NCC2CCC(C(c3cccs3)N(C)C)CC2)cc1 (centres unmarked) [Example 90, N-((4-((dimethylamino)(thiophen-2-yl)methyl)cyclohexyl)methyl)-2-(2-(1-(4-methoxyphenylsulfonyl)piperidin-2-yl)ethoxy)acetamide]	95%	94%
COc1ccc(S(=O)(=O)N2Cc3ccccc3CC2COCC(=O)NCCC2CCC(C(c3cccs3)N(C)C)CC2)cc1 (centres unmarked) [Example 48, N-(2-(4-((dimethylamino)(thiophen-2-yl)methyl)cyclohexyl)ethyl)-2-((2-(4-methoxyphenylsulfonyl)-1,2,3,4-tetrahydroisoquinolin-3-yl)methoxy)acetamide]	96%	101%
Cc1cc(C)c(S(=O)(=O)N(C)CCOCC(=O)NCC2CCC(C(c3cccs3)N(C)C)CC2)c(C)c1 (centres unmarked) [Example 57, N-((4-((dimethylamino)(thiophen-2-yl)methyl)cyclohexyl)methyl)-2-(2-(N,2,4,6-tetramethylphenylsulfonamido)ethoxy)acetamide]	95%	101%
CN(C)C(c1cccs1)C1CCC(CCNC(=O)COCCN(C)S(=O)(=O)c2ccc(Cl)cc2)CC1 (centres unmarked) [Example 37, 2-(2-(4-chloro-N-methylphenylsulfonamido)ethoxy)-N-(2-(4-((dimethylamino)(thiophen-2-yl)methyl)cyclohexyl)ethyl)acetamide]	96%	90%
Cc1ccc(S(=O)(=O)N2CCC(OCC(=O)NCC3CCC(C(c4cccs4)N(C)C)CC3)C2)cc1 (centres unmarked) [Example 68, N-((4-((dimethylamino)(thiophen-2-yl)methyl)cyclohexyl)methyl)-2-(1-tosylpyrrolidin-3-yloxy)acetamide]	93%	82%
COc1ccc(S(=O)(=O)N2CCCCC2COCC(=O)NCC2CCC(C(c3cccs3)N(C)C)CC2)cc1 (centres unmarked) [Example 45, N-((4-((dimethylamino)(thiophen-2-yl)methyl)cyclohexyl)methyl)-2-((1-(4-methoxyphenylsulfonyl)piperidin-2-yl)methoxy)acetamide]	96%	91%
COc1cc(C)c(S(=O)(=O)N2CCC(OCC(=O)NC3CCC(C(c4cccs4)N(C)C)CC3)CC2)c(C)c1C (centres unmarked) [Example 1, N-(4-((dimethylamino)(thiophen-2-yl)methyl)cyclohexyl)-2-(1-(4-methoxy-2,3,6-trimethylphenylsulfonyl)piperidin-4-yloxy)acetamide]	100%	94%
CN(C)C(c1cccs1)C1CCC(CNC(=O)COCCN(C)S(=O)(=O)c2ccc(Cl)cc2)CC1 (centres unmarked) [Example 55, 2-(2-(4-chloro-N-methylphenylsulfonamido)ethoxy)-N-((4-((dimethylamino)(thiophen-2-yl)methyl)cyclohexyl)methyl)acetamide]	95%	92%

From patent publication US8106055B2, “Substituted amide compounds” (Gruenenthal GmbH, priority 2007, dated 2012)
